In the supplement of paper PMC10307832:

compound: C=CCn1c(=O)c2cnc(Nc3ccc(N4CCN(C)CC4)cc3)nc2n1-c1cccc(C(C)(C)O)n1 [Adavosertib] + CS(=O)(=O)CCNCc1ccc(-c2ccc3ncnc(Nc4ccc(OCc5cccc(F)c5)c(Cl)c4)c3c2)o1 [Lapatinib] (partner 2 µM); experiment: relative viability (nuclei count vs DMSO), 5 days (fraction); higher = more cells survive; conditions: first compound 0.3162 µM
Procedure, shortened: (§1)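 One day after seeding in 1536-well plates, lung cancer cell lines were dosed by pin tool. Dosing was either single-drug or a fixed anchor-drug dose plus five library-drug doses (not always all listed) in √10 steps. After 5 days, nuclei were stained in one fix-and-stain step and counted on 4× images, and relative viability is the nuclei count of treated wells over that of vehicle wells, given as the median of duplicate plates.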

Row | Cell Line | relative viability
1 | HCC-78 | 0.868
2 | HCC-366 | 1.13
3 | HCC-827 | 0.191
4 | HOP-62 | 1.11
5 | IA-LM | 0.901
6 | LC-2-ad | 0.906
7 | LCLC-97TM1 | 0.686
8 | LK-2 | 0.97
9 | LOU-NH91 | 0.674
10 | LU99A | 0.639
11 | LXF-289 | 0.922
12 | NCI-H23 | 0.328
13 | NCI-H322M | 0.435
14 | NCI-H358 | 0.431
15 | NCI-H460 | 0.83
16 | NCI-H1299 | 0.431
17 | NCI-H1395 | 0.78
18 | NCI-H1650 | 0.379
19 | NCI-H1703 | 0.257
20 | NCI-H1793 | 0.647
21 | NCI-H2170 | 0.287

compound: C=CCn1c(=O)c2cnc(Nc3ccc(N4CCN(C)CC4)cc3)nc2n1-c1cccc(C(C)(C)O)n1 [Adavosertib] + C[C@@H](Oc1cc(-c2cnn(C3CCNCC3)c2)cnc1N)c1c(Cl)ccc(F)c1Cl [Crizotinib] (partner 1 µM); experiment: as above; conditions: first compound 0.01 µM
Procedure, shortened: as §1

Row | Cell Line | relative viability
22 | 201T | 1.05
23 | A549 | 0.733
24 | A-427 | 0.972
25 | ABC-1 | 1.16
26 | BEN | 0.985
27 | CAL-12T | 0.935
28 | COR-L23 | 0.69
29 | COR-L 105 | 0.746
30 | Calu-6 | 0.777
31 | ChaGo-K-1 | 1.05
32 | EBC-1 | 0.206
33 | EKVX | 1.13
34 | EPLC-272H | 1.01
35 | H3255 | 0.87
36 | HARA | 1
37 | HCC-15 | 0.826
38 | HCC-44 | 0.827
39 | HCC-78 | 0.34

Row | Cell Line | relative viability
40 | HCC-366 | 0.498
41 | HCC-827 | 0.895
42 | HOP-62 | 0.986
43 | IA-LM | 0.868
44 | LC-2-ad | 0.499
45 | LCLC-103H | 1.07
46 | LK-2 | 0.278
47 | LOU-NH91 | 0.709
48 | LU99A | 0.529
49 | LXF-289 | 0.8
50 | NCI-H23 | 0.532
51 | NCI-H358 | 0.542
52 | NCI-H441 | 0.751
53 | NCI-H460 | 0.929
54 | NCI-H1299 | 0.929
55 | NCI-H1650 | 0.931
56 | NCI-H1703 | 0.853
57 | NCI-H2170 | 1.23

same assay, conditions: first compound 0.03162 µM

Row | Cell Line | relative viability
58 | 201T | 0.992
59 | A549 | 0.807
60 | A-427 | 0.931
61 | ABC-1 | 1.19
62 | BEN | 0.998
63 | CAL-12T | 0.592
64 | COR-L23 | 0.731
65 | COR-L 105 | 0.836
66 | Calu-6 | 0.746
67 | ChaGo-K-1 | 1.05
68 | EBC-1 | 0.192
69 | EKVX | 0.952
70 | EPLC-272H | 1.03
71 | H3255 | 1.04
72 | HARA | 1.06
73 | HCC-15 | 0.818
74 | HCC-44 | 0.856
75 | HCC-78 | 0.351
76 | HCC-366 | 0.568

Row | Cell Line | relative viability
77 | HCC-827 | 0.943
78 | HOP-62 | 0.905
79 | LC-2-ad | 0.442
80 | LCLC-97TM1 | 0.501
81 | LCLC-103H | 0.99
82 | LK-2 | 0.249
83 | LOU-NH91 | 0.712
84 | LU99A | 0.584
85 | LXF-289 | 0.841
86 | NCI-H23 | 0.558
87 | NCI-H322M | 0.982
88 | NCI-H358 | 0.559
89 | NCI-H441 | 0.637
90 | NCI-H460 | 0.822
91 | NCI-H1299 | 0.936
92 | NCI-H1650 | 1.02
93 | NCI-H1703 | 0.712
94 | NCI-H2170 | 1.17

same assay, conditions: first compound 0.1 µM

Row | Cell Line | relative viability
95 | 201T | 1.08
96 | A549 | 0.891
97 | A-427 | 1.02
98 | ABC-1 | 1.05
99 | BEN | 0.825
100 | CAL-12T | 0.776
101 | COR-L23 | 0.797
102 | COR-L 105 | 0.795
103 | Calu-6 | 0.916
104 | ChaGo-K-1 | 1.21
105 | EBC-1 | 0.206
106 | EKVX | 0.776
107 | EPLC-272H | 0.797
108 | H3255 | 1.04
109 | HARA | 1.04
110 | HCC-15 | 0.96
111 | HCC-44 | 0.946
112 | HCC-78 | 0.339
113 | HCC-366 | 0.701

Row | Cell Line | relative viability
114 | HCC-827 | 1.03
115 | HOP-62 | 1.04
116 | IA-LM | 1.02
117 | LC-2-ad | 0.547
118 | LCLC-97TM1 | 0.357
119 | LCLC-103H | 1.06
120 | LK-2 | 0.188
121 | LOU-NH91 | 0.788
122 | LU99A | 0.561
123 | LXF-289 | 0.88
124 | NCI-H23 | 0.517
125 | NCI-H322M | 0.834
126 | NCI-H358 | 0.507
127 | NCI-H441 | 0.838
128 | NCI-H460 | 1.11
129 | NCI-H1299 | 0.96
130 | NCI-H1650 | 1.04
131 | NCI-H1703 | 0.978
132 | NCI-H2170 | 1.19

same assay, conditions: first compound 0.3162 µM

Row | Cell Line | relative viability
133 | 201T | 1.07
134 | A549 | 0.702
135 | A-427 | 0.962
136 | ABC-1 | 1.31
137 | BEN | 0.873
138 | CAL-12T | 0.509
139 | COR-L23 | 0.304
140 | COR-L 105 | 0.747
141 | Calu-6 | 0.343
142 | ChaGo-K-1 | 1.12
143 | EBC-1 | 0.175
144 | EKVX | 1.06
145 | EPLC-272H | 0.652
146 | H3255 | 0.936
147 | HARA | 0.354
148 | HCC-15 | 0.967
149 | HCC-44 | 0.949
150 | HCC-78 | 0.347
151 | HCC-366 | 0.644
152 | HCC-827 | 0.929
153 | HOP-62 | 0.955
154 | IA-LM | 0.784
155 | LC-2-ad | 0.528
156 | LCLC-97TM1 | 0.147
157 | LCLC-103H | 1.07
158 | LK-2 | 0.224
